Like-named read-outs stand apart in the source and are kept apart here.
Legend:
TTR [1] = target: T1, TTR (Homo sapiens, UniProt P02766); test: Isothermal titration calorimetry (ITC); assay type: binding
T1 construct: purchased SCIPAC (Sittingbourne, Kent, UK) P171-1
Method: All ITC experiments were conducted on an iTC200 calorimeter (GE Healthcare), and the settings were 25 °C, stir at 1000 RPM, 1–2 μL injection spaced with 100–150 seconds, reference power: 6 μcal/sec. Isotherms were fitted using ORIGIN 7 software (OriginLab, MA, USA). To prepare TTR ITC protein solution (5 mL), purified and freeze-dried human TTR was weighted and dissolved in 310 μL of pure water. The reconstituted protein solution was then desalted by spin column (Bio-Rad, Bio-Gel P6) and the eluted volume was transferred to a 15mL falcon tube. The protein solution was further diluted with 10x Phosphate Buffered Saline (PBS, 500 μL), DMSO (150 μL) and water, (f/c: 4.3 mM Na2HPO4, 137 mM NaCl, 2.7 mM KCl, 1.47 mM KH2PO4, 3% DMSO v/v, TTR 19.35–25 μM, pH 7.8). UV A260/280 was measured to obtain the actual protein concentration using a calculated extinction coefficient of 18450 M^-1 cm^-1. To prepare ligand ITC solution (1 mL), 30 μL of ligand stock in DMSO was diluted with 10x PBS (100 μL) and water (f/c: 4.3 mM Na2HPO4, 137 mM NaCl, 2.7 mM KCl, 1.47 mM KH2PO4, 3% DMSO v/v, Ligand 280–600 μM, pH 7.8).

[2] = target: T2, Human transthyretin (TTR) (Homo sapiens, UniProt P02766); test: Co-crystallisation of TTR-ligand complex, X-ray hit confirmation; assay type: binding; settings: fragment seen in ligand-omitted difference density at >= 2σ in one or both binding sites; full or partial density
T2 construct: purchased SCIPAC (Sittingbourne, Kent, UK) P171-1
Method: Crystals were grown by vapor diffusion using a published crystallisation cocktail (100 mM HEPES pH 7.5, 200 mM CaCl2, 28% v/v PEG400) at 21 °C [29]. The hanging drop contained 1 μL of crystallisation cocktail, 1 μL of diluted ligand and 1 μL of TTR protein solution (85 μM). […] Crystals were harvested and flash cooled in a N2 cryostream or dipped into liquid ethane without cryoprotectant. Data was collected at Diamond Light Source (Oxon, UK) beamline I24, I04 or I04-1 (Pilatus 6M or ADSC Q315) or the European Synchrotron Radiation Facility (ESRF, Grenoble, France) beamline ID29 (Pilatus 6M-F) or in-house (Bruker X8 Diffractometer with APEXII CCD detector). Crystal unit cell was initially indexed by software MOSFLM [30] and LABELIT [31] within the EDNA [32] automatic data processing workflow. Diffraction image integration was performed by XDS [33] and reflection intensities were scaled by SCALA [34] or by PROTEUM2 if collected in-house. Phases were obtained by molecular replacement method using PHASER [35], 1DVQ from the Protein Data Bank (PDB) was used as the search model. Atomic positions of the initial model were refined by REFMAC5 [36]. Model building and ligand fitting was completed using COOT [37]. Model graphics were generated using CCP4MG [38]. Crystallographic statistics of all structures can be found in S4 Table.

TTR [3] = target: T1, TTR; test: Induced near-UV circular dichroism of ligand on TTR binding; settings: induced CD signal 280–320 nm, TTR 13.62 μM
Method: CD experiments were conducted in Diamond Light Source (Oxon, UK) beamline B23 installed with an Olis™ DSM 20 CD spectrophotometer. CD Buffer (10 mM Tris-HCl, 5 mM NaCl, pH 8.0) was prepared and loaded (450 μL) into a UV cuvette (10 mm path length). The near-UV (260–380 nm) CD spectrum of the solution was measured. 1 μL of SFL001535 10 mM DMSO stock was added into the cuvette and mixed by inversion. The CD spectrum of this solution was measured again. Contents of the cuvette containing SFL001535 in buffer were removed and the cuvette was washed with nitric acid. CD Buffer containing 13.62 μM of TTR was loaded into the cuvette and the near-UV CD spectrum of TTR was obtained (measured 10 times). A total of 8 μL of SFL001535 10 mM stock was added to the solution in 4 step additions (1 + 1 + 2 + 4 μL) and the CD spectrum were measured after each addition. The induced CD of SFL001535 was calculated by subtracting the CD spectrum of TTR alone.

[4] = target: T3, TTR in undiluted normal human reference plasma (Homo sapiens, UniProt P02766); test: 125I-T4 displacement assay in neat normal human plasma; assay type: binding; settings: neat normal human plasma; 4-parameter logistic fit
T3 construct: The TTR in plasma was immunoprecipitated by sheep anti-human prealbumin polyclonal antibody; tissue Precision Biologic Inc., Nova Scotia, Canada
Text: The assay was adapted from one described previously. Briefly, test ligand and ^125I-T4 (Perkin Elmer Inc., Waltham, MA) were mixed with undiluted normal human reference plasma (Precision Biologic Inc., Nova Scotia, Canada). The TTR in plasma was immunoprecipitated by sheep anti-human prealbumin polyclonal antibody (The Binding Site Group Ltd., Birmingham, UK). The immunoprecipitate was washed with buffer and their radioactivity measured with a 2470 WIZARD automatic gamma counter (Perkin Elmer Inc., Waltham, MA). […] Percentage of total radioligand binding for samples of different ligand concentration was then calculated as follows: […]
To calculate IC50 values, percentage of total radioligand binding at different concentration points were entered in SigmaPlot™ 11.0. Titration curves were done in triplicates with a minimum of 5 data points fitted by 4-Parameter Logistic Function.

[5] = N = number of non-hydrogen atoms

c1ccc2c(-c3cn[nH]c3)ccnc2c1 [SFL001535, 4-(3H-pyrazol-4-yl)quinoline]
Kd (TTR [1]; 25 °C, PBS pH 7.8, 3% DMSO, read-out: ITC Kd1 ± SD (N = 3)): 260 nM
Kd (TTR [1]; 25 °C, PBS pH 7.8, 3% DMSO, read-out: ITC Kd2 ± SD (N = 3)): 1960 nM
Kd (TTR [1]; Fig 8 isotherm, ± standard error of curve fitting, read-out: ITC Kd1 of shown isotherm): 260 ± 88.2 nM
Kd1 LE (Ligand Efficiency, ΔG/N) (TTR [1]; [5]): 0.60 kcal/mol
Kd2 LE (Ligand Efficiency, ΔG/N) (TTR [1]; [5]): 0.52 kcal/mol
Confirmed by X-ray [2]: Yes 9H7I
binding to TTR by induced CD (TTR [3]): confirmed
IC50 [4]: 34500 ± 12400 nM

Reference: publication PMC12077799, “Fragment-based drug discovery for transthyretin kinetic stabilisers using a novel capillary zone electrophoresis method” (PLOS One, 2025)
